These results are taken from patent publication US5475034A, “Topically administrable compositions containing 3-benzoylphenylacetic acid derivatives for treatment of ophthalmic inflammatory disorders” (Alcon Laboratories, Inc., priority 1994, dated 1995).

Structures are written as SMILES. Read-outs that look alike come from different tables or passages of the source.

The target of assay [1] is T1, prostaglandin H synthase (cyclooxygenase) (Ovis aries, UniProt P05979).
T1 construct: sheep vesicular gland microsomal powder; from tissue; host or cells: sheep vesicular gland (lipid-depleted microsomal powder, solubilized)
T1 sequence (P05979 25-600): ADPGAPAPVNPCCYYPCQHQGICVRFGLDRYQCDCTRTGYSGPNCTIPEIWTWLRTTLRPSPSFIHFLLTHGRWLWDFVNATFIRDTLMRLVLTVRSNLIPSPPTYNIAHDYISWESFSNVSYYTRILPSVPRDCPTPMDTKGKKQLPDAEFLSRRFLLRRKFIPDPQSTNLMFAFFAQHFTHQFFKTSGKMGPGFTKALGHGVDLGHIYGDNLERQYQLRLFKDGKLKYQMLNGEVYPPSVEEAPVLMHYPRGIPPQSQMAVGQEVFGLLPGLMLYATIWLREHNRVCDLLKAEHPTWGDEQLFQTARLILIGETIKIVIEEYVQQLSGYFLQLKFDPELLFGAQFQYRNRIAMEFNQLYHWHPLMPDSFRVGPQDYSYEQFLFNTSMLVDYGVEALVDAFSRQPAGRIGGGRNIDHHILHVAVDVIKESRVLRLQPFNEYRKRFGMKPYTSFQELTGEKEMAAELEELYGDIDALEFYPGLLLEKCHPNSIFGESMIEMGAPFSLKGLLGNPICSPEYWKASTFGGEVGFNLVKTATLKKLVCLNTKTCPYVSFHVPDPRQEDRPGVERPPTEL
The assay is described as follows: In vitro inhibition of cyclooxygenase (polarographic oxygen consumption, conversion of arachidonic acid to prostaglandin H2). Format: biochemical, sheep. Particulars: for IC50: sheep vesicular gland microsomal enzyme, pH 7.4, 30° C.; for less effective inhibitors of cyclooxygenase activity in vitro: versus free carboxylic acid analogues. How it is done: In vitro anti-inflammatory activity of 2-amino-3-benzoylbenzeneacetic acid analogues was tested by polarographically monitoring the inhibition in the rate of oxygen consumption (Cook H. W., Ford G., and Lands WEM, Anal. Biochem. 96:341, 1979) in the conversion of arachidonic acid to prostaglandin H2 by prostaglandin H synthase (cyclooxygenase). Cyclooxygenase enzyme was prepared by solubilizing 20 mg of lipid-depletedsheep vesicular gland microsomal powder (Graff G., Stephenson J. H., et al., J. Biol. Chem. 253:7662, 1978) in 1.0 mL of buffer containing 50 mM phosphate, 5 mM diethyldithiocarbamic acid, and 2 μM hematin (pH 7.4). Incubations were carried out at 30° C. with a YSI-oxygen monitor (Model 53) in 50 mM phosphate/0.5 mM phenol buffer (pH 7.4) as described elsewhere (Graff G., and Anderson L. A., Prostaglandins 38:473, 1989).

Assay [2] concerns trauma-induced breakdown of the blood-aqueous-barrier. As to the kind of experiment: In vivo trauma-induced (paracentesis) breakdown of the blood-aqueous-barrier: aqueous humor PGE2 and protein. Also on record: species or system New Zealand Albino (NZA) rabbits. Particulars: for inhibition in vivo at 0.1 %: Oryctolagus cuniculus, 0.5 h, read-out: In Vivo Paracentesis Protein Extravasation Inhibition. As for the experimental part:
In vivo anti-inflammatory activity of 2-amino-3-benzoylbenzeneacetic acid analogues was evaluated in the model of trauma-induced breakdown of the blood-aqueous-barrier in New Zealand Albino (NZA) rabbits. Animals were anesthetized prior to bilateral administration of a single topical 50 μL dose of a 0.1% solution/suspension of formulated test or reference compound. After 45 minutes of treatment ocular trauma was induced by paracentesis.

In assay [3] the test system is iris/ciliary body prostaglandin synthesis. As to the kind of experiment: Ex vivo inhibition of iris/ciliary body prostaglandin synthesis after topical dosing. To be noted: for inhibition in vivo at 0.1 %: Oryctolagus cuniculus, 1 h, single topical dose of 0.1% drug solution/suspension 60 minutes prior to iris/ciliary body isolation, read-out: Ex Vivo Iris/Ciliary Body Total Prostaglandin Synthesis Inhibition. The assay is classed as in vivo, New Zealand Albino (NZA) rabbits. As for the experimental part:
Ex vivo anti-inflammatory activity of 2-amino-3-benzoylbenzeneacetic acid analogues was evaluated in naive New Zealand Albino (NZA) rabbits. In this test animals were dosed bilaterally with a single 50 μL aliquot of a 0.1% solution/suspension of vehicle, formulated test or reference compound. After 60 minutes of treatment, animals were euthanized, iris/ciliary body (ICB) quickly excised and placed into ice-cold PBS buffer (pH 7.4). The tissue was then weighed, homogenized in ice-cold 50 mM phosphate/0.5 mM phenol buffer (pH 7.4) and incubated for 10 minutes at 37° C. with 10 μM of [1-^14 C]-20:4.

The mark [4] stands for this setting: single topical dose of 0.1% drug solution/suspension 45 minutes prior to paracentesis, plasma protein influx into aqueous humor.
Setting [5] is: single topical dose of 0.1% drug solution/suspension 45 minutes prior to paracentesis.

What is called IC50 is the concentration needed to halve the response being measured. As to `Nc1c(CC(=O)O)cccc1C(=O)c1ccc(Cl)cc1` [4'-Cl OH, 2-amino-3-(4-chloro-benzoyl)benzeneacetic acid, reference compound], the IC50 in assay [1] came to 0.07 µM. Moreover, the inhibition in vivo at 0.1 % in assay [2] (setting [4]) stood at 72%. Moreover, the “In Vivo Aqueous Humor PGE2 Accumulation Inhibition” value in assay [2] (setting [5]) is given as 99%.

Regarding `O=C(O)Cc1ccccc1Nc1c(Cl)cccc1Cl` [Diclofenac, reference compound], the “in vitro cyclooxygenase inhibition, result in words” value in assay [1] was “somewhat less effective”. The inhibition in vivo at 0.1 % in assay [3] came out at 50%; in assay [2], 54%. Besides, the “in vivo anti-inflammatory activity, result in words” value in assay [2] (plasma protein influx and aqueous humor PGE2 accumulation) is “somewhat less effective”. Moreover, the “In Vivo Aqueous Humor PGE2 Accumulation Inhibition” value in assay [2] (setting [5]) stood at 97%.

Regarding `Nc1c(CC(=O)O)cccc1C(=O)c1ccc(F)cc1` [4'-F OH, reference compound], the IC50 in assay [1] is 0.171 µM. Also, in assay [2] (setting [4]), the inhibition in vivo at 0.1 % worked out at 42%.

For `Nc1c(CC(=O)O)cccc1C(=O)c1ccccc1` [Amfenac, 2-amino-3-benzoylbenzeneacetic acid, reference compound], half-maximal inhibition in assay [1] (IC50) was put at 0.25 µM. Also, the inhibition in vivo at 0.1 % in assay [2] (setting [4]) was determined as 41%.

In turn, `NC(=O)Cc1cccc(C(=O)c2ccc(Br)cc2)c1N` [Compound 15, 2-Amino-3-(4-bromobenzoyl)-phenylacetamide] came in with a half-inhibitory concentration (IC50) in assay [1] of 19 µM. Besides, in assay [1], the “less effective inhibitors of cyclooxygenase activity in vitro” value (shortened to “less effective inhibitors”) was ≥ 3 orders of magnitude. For the same compound, the values for the inhibition in vivo at 0.1 % in assay [3] and in assay [2] (setting [4]) were 23% and 64%, respectively. Besides, the “In Vivo Aqueous Humor PGE2 Accumulation Inhibition” value in assay [2] (setting [5]) was found to be 97%.

Compound `CNC(=O)Cc1cccc(C(=O)c2ccc(Br)cc2)c1N` [Compound 16, 2-Amino-3-(4-bromobenzoyl)-N-methyl phenylacetamide] displayed an IC50 in assay [1] of 16 µM. Also, the “less effective inhibitors” value in assay [1] is listed as ≥ 3 orders of magnitude. The inhibition in vivo at 0.1 % in assay [3] was found to be 48%; in assay [2] (setting [4]), 62%. In addition, in assay [2] (setting [5]), the “In Vivo Aqueous Humor PGE2 Accumulation Inhibition” value is recorded as 93%.

Regarding `NC(=O)Cc1cccc(C(=O)c2ccccc2)c1N` [Compound 8, 2-Amino-3-benzoyl-phenylacetamide], the IC50 in assay [1] was 64 µM. Also, in assay [1], the “less effective inhibitors” value was ≥ 3 orders of magnitude. Besides, the inhibition in vivo at 0.1 % in assay [3] came out at 81%; in assay [2] (setting [4]), 61%. The “spectrum of inhibition of iris/ciliary body prostaglandins” value in assay [3] (individual prostaglandins) is “inhibited to a similar extent”. In addition, the “ex vivo iris/ciliary body prostaglandin synthesis inhibition, result in words” value in assay [3] (rabbit, in vivo) is recorded as “most effective inhibitor”. For the same compound, in assay [2] (setting [5]), the “In Vivo Aqueous Humor PGE2 Accumulation Inhibition” value stood at 98%.

`CCOC(=O)Cc1cccc(C(=O)c2ccc(Br)cc2)c1N` [Compound 14, Ethyl-2-Amino-3-(4-bromobenzoyl)benzene acetate] had a half-inhibitory concentration (IC50) in assay [1] of over 25 µM. Moreover, the inhibition in vivo at 0.1 % in assay [3] was 33%; in assay [2] (setting [4]) it was 60%.

Turning to `NC(=O)Cc1cccc(C(=O)c2ccc(Cl)cc2)c1N` [Compound 9, 2-Amino-3-(4-chlorobenzoyl)-phenylacetamide], the concentration for half-maximal inhibition (IC50) in assay [1] is over 100 µM. Further, the “less effective inhibitors” value in assay [1] is recorded as ≥ 3 orders of magnitude. The inhibition in vivo at 0.1 % in assay [3] was found to be 29%; in assay [2] (setting [4]), 65%. In addition, in assay [2] (setting [5]), the “In Vivo Aqueous Humor PGE2 Accumulation Inhibition” value came to 98%.

Turning to `CN(C)C(=O)Cc1cccc(C(=O)c2ccc(Br)cc2)c1N` [4'-Br N(CH3)2, reference compound], in assay [1], the “in vitro cyclooxygenase inhibition, result in words” value is “inactive” and the 50% inhibitory concentration (IC50) is over 100 µM. For the same compound, the “in vivo anti-inflammatory activity, result in words” value in assay [2] is “inactive”. Moreover, in assay [2] (setting [4]), the inhibition in vivo at 0.1 % is 2%. Besides, the “In Vivo Aqueous Humor PGE2 Accumulation Inhibition” value in assay [2] (setting [5]) was -27%.

On to `NC(=O)Cc1cccc(C(=O)c2ccc(F)cc2)c1N` [Compound 7, 2-Amino-3-(4-fluorobenzoyl)-phenylacetamide], for which, in assay [1], the IC50 was found to be 133 µM and the “less effective inhibitors” value is ≥ 3 orders of magnitude. Moreover, the inhibition in vivo at 0.1 % in assay [3] turned out to be 27%. Besides, the inhibition in vivo at 0.1 % in assay [2] (setting [4]) was determined as 72%. Further, the “In Vivo Aqueous Humor PGE2 Accumulation Inhibition” value in assay [2] (setting [5]) is listed as 98%.

For `Nc1c(CC(=O)O)cccc1C(=O)c1ccc(Br)cc1` [Bromfenac, reference compound], in assay [1], the half-inhibitory concentration (IC50) was found to be 0.029 µM. In addition, the inhibition in vivo at 0.1 % in assay [3] came to 44%; in assay [2] (setting [4]) it was 62%. Further, the “In Vivo Aqueous Humor PGE2 Accumulation Inhibition” value in assay [2] (setting [5]) worked out at 98%.
